Laboratory results: patent publication US11147807B2, “Pharmaceutical composition containing DUSP1 inhibitor” (INDUSTRY-UNIVERSITY COOPERATION FOUNDATION HANYANG …, priority 2017, dated 2021)
Like-named read-outs stand apart in the source and are kept apart here.

Key:
[1] = biological target: T1, DUSP1 enzyme (activation domain, amino acid residues 166-316) (Homo sapiens, UniProt P28562); assay: DUSP1 activity inhibitory potency, fluorescence enzyme assay with DiFMUP substrate; type: biochemical; conditions: 50 nM DUSP1 activation domain, 10 μM DiFMUP, 5% DMSO
T1 construct: made in house; host or cells: E. coli BL21
T1 sequence (P28562 166-316): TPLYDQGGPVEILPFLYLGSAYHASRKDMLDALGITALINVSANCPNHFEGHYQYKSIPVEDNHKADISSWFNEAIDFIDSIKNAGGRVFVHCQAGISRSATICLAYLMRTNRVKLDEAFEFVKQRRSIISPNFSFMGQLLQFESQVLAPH
Protocol: The inhibitory potency of the DUSP1 activity on 8 kinds of the compounds screened in Example 1 was measured.
As the assay buffer, 20 mM Tris-HCl (pH 8.0), 0.01% Triton X-100 and 5 mM DTT were used, and a fluorescent substrate of 6,8-difluoro-4-methylumbelliferyl phosphate (DiFMUP) 10 μM was used as the substrate. The DUSP1 enzyme was expressed and purified from the activation domain (amino acid residues 166-316) and was used at 50 nM concentration in the enzyme reaction.
The expression and purification of the activation domain was carried out in the following manner. The DUSP1 activation domain (amino acid residues 166-316) was cloned into the pET28a (Novagen) vector and expressed in E. coli BL21 strain. The E. coli transformed with the expression vector of the DUSP1 activation domain was promoted with 0.1 mM of IPTG (isopropyl β-D-1-thiogalactopyranoside) at 37° C. The E. coli expressed with the DUSP1 activation domain was purified using a nickel affinity column after being crushed with a sonicator. The purified protein was quantified by the Bradford assay and used for the enzyme reaction.
The fluorescence generated by the enzymatic action was measured using a Victor spectrofluorometer (PerkinElmer) with an excitation/emission wavelength of 355 nm/460 nm. From the obtained results, the intermediate suppression value (IC50) was determined according to a 4-parameter logistic method of the Sigmaplot program package (Systat software Inc.), and the measurement results of the DUSP1 enzyme activity inhibitory potency were shown in Table 2 below.

[2] = test system: normal hepatocyte line BNL-CL2; assay: MTT analysis on normal hepatocyte line; type: cell-based; conditions: 96 hours; for cell growth rate (MTT), BNL-CL2 cell line, compound concentration 5.0 μM: BNL-CL2, 5.0 μM, unit assumed
Protocol: (§1) The MTT analysis was performed to confirm the potency of inhibiting the growth of liver cancer cells of the DUSP1 inhibitor compound of the present invention.
(§2) A human liver cancer cell line Hep3B was cultured in DMEM, 10% FBS, 1% Anti-anti (Gibco) and prepared in a 96-well plate at a density of 7,000 cells/well. A normal hepatocyte line BNL-CL2 cell was cultured in DMEM, 10% FBS, 1% Anti-anti (Gibco) and prepared in a 96-well plate at a density of 3,000 cells/well.
(§3) After incubating at 37° C. for 15 hours, Compounds 6 to 8 were treated at the time of medium exchange so that final concentrations of the compounds in the medium become 2.5 μM and 5.0 μM, respectively, and the treatment conditions were adjusted so that the final DMSO concentration in the medium after treatment of the compounds can be maintained to 0.5%.
(§4) After 96 hours, a cell growth rate was measured using the Roche Cell […] Assay I (MTT) Kit. 10 μL of the MTT solution was added to each of 100 μL wells to a final concentration of 0.5 mg/ml, and then incubated at 37° C. for 4 hours and 100 μL of the solubilization buffer provided in the Kit was added.

[3] = test system: human liver cancer cell line Hep3B; assay: MTT analysis of liver cancer cell growth inhibition; type: cell-based; conditions: 96 hours, unit assumed
Protocol: as §1, §2, §3, §4

PC12 neuron = assay: Neurite outgrowth assay with NGF; type: cell-based; conditions: PC12, phase contrast microscope, 72 hours
Protocol: The Neurite outgrowth assay was carried out with PC12 neuron by appropriately modifying the protocol described in Ishima et al., (2015) Potentiation of neurite outgrowth by brexpiprazole, a novel serotonin-dopamine activity modulator: A role for serotonin 5-HT1A and 5-HT2A receptors. Eur. Neuropsychopharm. 25, 505-511.
The PC12 neurite cells were distributed by the Korea Cell Line Bank (Seoul National University in Korea) and prepared in a 96-well plate at a density of 7,000 cells/well. The cell culture was performed in Dulbeco's Modified Eagle's Media (DMEM), 10% FBS and 1% Anti-anti (Gibco).

[4] = test system: human liver cancer cell line Hep3B xenograft; assay: Xenograft assay for tumor suppression; type: in vivo; conditions: Hep3B xenograft in nude mouse, two intratumoral doses 4 days apart, measured 4 days after second dose; FIG. 4
Protocol: Using a xenograft assay method, it was confirmed whether the DUSP1 inhibitor of the present invention has the potency of inhibiting the cell growth of a liver cancer.
A human liver cancer cell line Hep3B of 1×10^7 was injected into the subcutaneous layer of the back of a nude mouse in DMEM medium, and then when the cell line was 200 to 500 mm^3 in size, it was extracted and inserted into the subcutaneous layer of the back of a new nude mouse in the size of 5×5×5 mm.
The primary and secondary compounds 7 were administered intratumorally at concentrations of 3 μg and 6 μg, respectively, and the primary and secondary compounds 8 were administered intratumorally at concentrations of 2 μg and 4 μg, respectively.

[5] = biological target: T1, DUSP1 enzyme (activation domain, amino acid residues 166-316); conditions: comparison value quoted in text; read-out: IC50 value of known selective DUSP1 inhibitor; cited from earlier work

Compound | IC50 [1] [µM] | cell growth rate (MTT), BNL-CL2 cell line, compound concentration […] [2] | other results
CC(=O)c1c(Nc2ccc(Cl)cc2Cl)[nH]c2c(Cl)ccc(F)c2c1=O [Compound 3] | 7.5 | – | –
CC(=O)c1c(Nc2ccc(Br)cc2Br)[nH]c2c(Cl)ccc(F)c2c1=O [Compound 4] | 6.1 | – | –
O=C(c1c(Nc2cc(Cl)cc(Cl)c2)[nH]c2c(Cl)ccc([N+](=O)[O-])c2c1=O)C1CC1 [Compound 5] | 4.1 | – | –
CC(=O)c1c(Nc2cc(C(F)(F)F)cc(C(F)(F)F)c2)[nH]c2c(Cl)ccc(F)c2c1=O [Compound 6] | 4.2 | 111 | cell growth rate (MTT), BNL-CL2 cell line, compound concentration 5.0 μM [2]: 8%; cell growth rate (MTT), HEP3B cell line, compound concentration 5.0 μM [3]: 14%; induction of neurite outgrowth (PC12 neuron): shape of neurites stretching from the cell can be confirmed
C[n+]1cc2c3c(ccc2c2ccc4cc5c(cc4c21)OCO5)OCO3 [Sanguinarin] | – | – | IC50 [5]: 10 µM

The next lines start with results.

IC50 [1] [µM] | Compound | cell growth rate (MTT), BNL-CL2 cell line, compound concentration […] [2] | other results
5.1 | CC(C)C(=O)c1c(Nc2cc(Cl)cc(Cl)c2)[nH]c2c(Cl)ccc([N+](=O)[O-])c2c1=O [Compound 1] | – | –
3.5 | CC(C)CC(=O)c1c(Nc2cc(Cl)cc(Cl)c2)[nH]c2c(Cl)ccc([N+](=O)[O-])c2c1=O [Compound 7] | 156 | tumor size reduction [4]: about 70%
4.8 | CC(C)CC(=O)c1c(Nc2cccc(Cl)c2Cl)[nH]c2c(Cl)ccc([N+](=O)[O-])c2c1=O [Compound 8] | 139 | cell growth rate (MTT), BNL-CL2 cell line, compound concentration 5.0 μM [2]: 54%; cell growth rate (MTT), HEP3B cell line, compound concentration 5.0 μM [3]: 16%; tumor size reduction [4]: about 85%
